# Patent publication US7981873B1, “Use within transplantation surgery” (Corline Systems AB, priority 2000, dated 2011)
# Experiments:
# Format in all cases: cell-based
# [1] = test system: human islets in ABO-compatible fresh human blood; experiment: Tubing loop model: human islet perifusion with ABO-compatible fresh human blood; design: TAT: unit not given here; settings: after 60 min human islet perifusion, Mean ± SE(M)
# Description: (§1) All the in vitro experiments for studies of islets contacting whole blood were performed in a tubing loop model. The experimental model is a modification of a model for testing biomaterials that has previously been described (J. Clin. Immunol. 16, 223-230 (1996)). Tubings made of polyvinylchloride (PVC, i.d.=6.3 mm, length=300 mm) were modified with immobilized heparin according to a method developed by Corline Systems AB (Uppsala, Sweden) as disclosed in international patent application no WO93/05793. Briefly, the polymer surface is modified with a high molecular weight amine compound to add primary amine groups to the surface. A soluble conjugate prepared by covalent binding of approximately 60 mol of heparin per mol of a straight-chained polyallylamine is irreversibly bonded onto the amine surface of the tubings. This procedure results in a total surface concentration of heparin of approximately 0.5 μg/cm^2. By using such heparin modified tubings it is possible to incubate the tubings with non-anticoagulated fresh human blood in a rocking device at 37° C. for one hour with only moderate activation of blood (c.f. control column in Table 1 A and 1 B below). Unmodified tubings will invariably induce complete clotting at these experimental conditions. Addition of human islets or porcine adult or fetal islets lead to some remarkable observations. Complete clotting invariably occurred with a total loss of platelets, a sharp increase in the formation of TAT and a very significant increase in the markers of the early contact phase (FXIIa and FXIa) of coagulation (C.f. Table 1 A and 1 B).
# (§2) Sixty ml of non-anticoagulated blood was collected from healthy blood donors using heparin-coated equipment. U-shaped tubings with a total volume of nine ml were filled with eight ml of blood immediately followed by addition of isolated human islets or porcine adult or porcine fetal islets (500 IEQ). The tubings were then closed into loops using connectors of titanium furnished with immobilised heparin. The tubing loops were placed vertically in a rocking device and the complete apparatus was placed in an incubator at 37° C. for up to sixty minutes. At the end of the rocking period blood was collected in EDTA and the number of cells were counted in a automatic cell counter. The blood samples were then centrifuged at 4° C. (3290×g, 20 min) and EDTA plasma was collected and immediately put at −70° C. Islets retrieved after blood perifusion were prepared for immunohistochemistry.
# [2] = test system: adult porcine islets in fresh human blood; experiment: Tubing loop model: adult porcine islet perifusion with fresh human blood; design: FNIIa-AT / TAT: unit not given here; settings: for Platelets: blood supplemented with additive, Mean SE(M); for TAT: thrombin-antithrombin
# Description: as §1, §2
# [3] = test system: platelets in platelet rich plasma (PRP); experiment: Islet-induced platelet aggregation in platelet rich plasma (aggregometer); settings: agent added to PRP before islets
# Description: Platelets in platelet rich plasma (PRP) and gel filtered platelets were tested in an aggregometer. Islets were added to PRP and thereafter analysed in the aggregometer. It was shown that the islets induced aggregation of the platelets (FIG. 1) and that platelets number in the sample were reduced from 375×10^9 to 236×10^9. If purified platelets without plasma proteins were used in combination with islets no aggregation and reduction in the platelet count were observed. In attempts to identify the mechanism behind the induced aggregation, an RGDS tetrapeptide to inhibit integrin binding and a monoclonal antibody against Fc receptors on platelets were used.
# [4] = after 60 min adult porcine islet perifusion
molecule,measurement,setting,value
heparin,Platelets,[1]; blood supplemented with additive,114 ± 17 ×10^9
same,C3a,[1],565 ± 143.6 ng/mL
same,C5b-9,[1],147 ± 39.6 AU/mL
same,FXIIa-AT,[1],5.4e-06 ± 1.7e-06 M
same,FXIa-AT,[1],3.4e-07 ± 1.2e-07 M
same,Lymph.,[1],1.60 ± 0.20 ×10^9
same,Mono.,[1],0.28 ± 0.06 ×10^9
same,Neutra.,[1],2.56 ± 0.43 ×10^9
same,TAT,[1]; thrombin-antithrombin,4467 ± 2285
same,C3a,[2]; [4],486 ± 139 ng/mL
same,C5b-9,[2]; [4],82 ± 22 AU/mL
same,FXIa-AT,[2]; [4],0.53 ± 0.26 µM
same,Lymphcytes,[2]; [4],1.88 ± 0.11 ×10^9
same,Monocytes,[2]; [4],0.35 ± 0.05 ×10^9
same,Neutrophils,[2]; [4],3.00 ± 0.19 ×10^9
same,Platelets,[2]; [4],145 ± 13.0 ×10^9
same,clotting,"[2]; in words, summary of Tables 1A and 1B",prevented clotting
same,platelet count and generation of TAT,"[2]; in words, summary of Tables 1A and 1B, listed as Soluble heparin",remarkable improvement
same,platelet count and generation of TAT,"[2]; in words, summary of Tables 1A and 1B, listed as soluble heparin",remarkable improvement in preservation of the number of platelets and reduced generation of TAT
same,TAT,[2]; [4],505 ± 162
RGDS [RGDS peptide],consumption of platelets when islets were added to PRP,[3]; FIG. 2,totally abolished
same,aggregation of platelets when islets were added to PRP,"[3]; FIG. 2, FIG. 3",totally abolished
"C1-INA: the complement inhibitor C1 inactivator (C1-INA) (protein, UniProt P05155 23-500, looked up) Plasma protease C1 inhibitor: NPNATSSSSQDPESLQDRGEGKVATTVISKMLFVEPILEVSSLPTTNSTTNSATKITANTTDEPTTQPTTEPTTQPTIQPTQPTTQLPTDSPTQPTTGSFCPGPVTLCSDLESHSTEAVLGDALVDFSLKLYHAFSAMKKVETNMAFSPFSIASLLTQVLLGAGENTKTNLESILSYPKDFTCVHQALKGFTTKGVTSVSQIFHSPDLAIRDTFVNASRTLYSSSPRVLSNNSDANLELINTWVAKNTNNKISRLLDSLPSDTRLVLLNAIYLSAKWKTTFDPKKTRMEPFHFKNSVIKVPMMNSKKYPVAHFIDQTLKAKVGQLQLSHNLSLVILVPQNLKHRLEDMEQALSPSVFKAIMEKLEMSKFQPTLLTLPRIKVTTSQDMLSIMEKLEFFDFSYDLNLCGLTEDPDLQVSAMQHQTVLELTETGVEAAAASAISVARTLLVFEVQQPFLFVLWDQQHKFPVFMGRVYDPRA",C3a,[2]; [4],1094 ± 78 ng/mL
same,C5b-9,[2]; [4],183 ± 29 AU/mL
same,FNIIa-AT,[2]; [4],19.65 ± 0.45
same,FXIa-AT,[2]; [4],2.95 ± 0.15
same,Lymphcytes,[2]; [4],1.23 ± 0.38 ×10^9
same,Monocytes,[2]; [4],0.15 ± 0.01 ×10^9
same,Neutrophils,[2]; [4],0.41 ± 0.13 ×10^9
same,Platelets,[2]; [4],4 ± 0 ×10^9
same,complement activation,"[2]; in words, summary of Table 1B",reduced complement activation
same,effect on the coagulation parameters,"[2]; in words, summary of Table 1B",no detectable effect
same,TAT,[2]; [4],30250 ± 3450
